Results from US20110201622A1, “Solid Forms Comprising A Cyclopropyl Amide Derivative” (priority 2010, published 2011).

Columns and labels:
[1] = Dynamic vapor sorption (DVS) analysis; type: physicochemical; details: about ambient temperature, about 0% RH to about 90% RH
Method: Solid material obtained according to Example 5 was analyzed by DVS techniques. Isothermic DVS analysis was performed at about ambient temperature by increasing a sample of Form I of Compound I from about 0% RH to about 90% RH.
DVS analysis is performed on samples prepared according to standard methods using standard equipment, e.g., a DVS instrument commercially available from Surface Measurement Systems, Ltd.™(Alperton, London, UK). Samples maintained at ambient temperature are cycled between about 0% RH and about 90% RH. Percent changes in mass are recorded, which are indicative of moisture sorption and desorption.

[2] = Thermal gravimetric analysis (TGA); type: physicochemical
Method: Solid material obtained according to the Example 5 was analyzed by thermal techniques.

C[C@@H]1CN(C2CCC2)CCN1C(=O)[C@H]1C[C@@H]1c1ccc(C(N)=O)cc1 [Form I of Compound I, 4-{(1S, 2S)-2-[((R)-4-cyclobutyl-2-methylpiperazin-1-yl)carbonyl]-cyclopropyl}-benzamide]
hygroscopicity (DVS analysis) [1]: substantially nonhygroscopic
mass loss (TGA) ([2]; upon heating from about 20° C. to about 100° C.): about 0.25%
further mass loss (TGA) ([2]; upon heating from about 100° C. to about 160° C.): about 0.25%
